{
  "source": "patent US6355619B1",
  "about": "“Peptide tumor cell growth inhibitors” (Board of Regents, The University of Texas System, priority 1996, dated 2002)",
  "key": {"[1]": {"molecular_target": "T1, C5a binding to human neutrophils (Homo sapiens, UniProt P21730)", "T1 construct": "endogenous in cells; host or cells: human blood neutrophils", "T1 sequence (P21730 whole entry)": "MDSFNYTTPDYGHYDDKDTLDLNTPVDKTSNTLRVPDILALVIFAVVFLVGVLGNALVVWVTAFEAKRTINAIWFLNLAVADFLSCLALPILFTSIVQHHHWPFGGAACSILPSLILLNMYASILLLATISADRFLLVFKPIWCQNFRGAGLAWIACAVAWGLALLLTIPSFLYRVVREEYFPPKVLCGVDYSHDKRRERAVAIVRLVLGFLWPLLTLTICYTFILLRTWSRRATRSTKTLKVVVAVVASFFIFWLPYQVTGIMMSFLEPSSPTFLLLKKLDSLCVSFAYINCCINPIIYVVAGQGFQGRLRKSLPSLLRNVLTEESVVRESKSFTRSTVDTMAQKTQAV", "experiment": "Binding of 125I-C5a to human neutrophils", "settings": "100 μM peptide; 0.25 nM 125I-labeled C5a", "from_the_text": "To examine the specificity of Ac-RRWWCR-NH2 (SEQ ID NO:1) on ligand-receptor binding, the inventors tested whether the peptide reduced the binding of human ^125I-C5a or ^3H-leukotriene B4 to human neutrophils.\nRecombinant human fifth component of complement (C5a) (Sigma Chemical Co., St. Louis, Mo.) was radioiodinated enzymatically using Enzymobead (Bio Rad, Richmond, Calif.). Tritiated leukotriene B4 was purchased from Du Pont Co., Wilmington, Del. Binding assays for C5a and leukotriene B4 were performed as described for IL-8 binding in Example I, except that the buffers used were PBS containing 1 mM CaCl2, 0.5 mM MgCl2, 0.5% BSA, and HBSS containing 0.1% ovulabumin and 10 mM HEPES (pH7.3), respectively, as previously described (Braunwalder et al., 1992; Sherman et al., 1988). The radioactivity was measured with liquid scintillation counter for the leukotriene B4 assay. The binding of both ligands were saturable and inhibited by the non-labeled agonists in dose dependent manners."}, "[2]": {"molecular_target": "T2, GRO binding to human neutrophils (Homo sapiens, UniProt P25025)", "T2 construct": "endogenous in cells; host or cells: human neutrophils", "T2 sequence (P25025 whole entry)": "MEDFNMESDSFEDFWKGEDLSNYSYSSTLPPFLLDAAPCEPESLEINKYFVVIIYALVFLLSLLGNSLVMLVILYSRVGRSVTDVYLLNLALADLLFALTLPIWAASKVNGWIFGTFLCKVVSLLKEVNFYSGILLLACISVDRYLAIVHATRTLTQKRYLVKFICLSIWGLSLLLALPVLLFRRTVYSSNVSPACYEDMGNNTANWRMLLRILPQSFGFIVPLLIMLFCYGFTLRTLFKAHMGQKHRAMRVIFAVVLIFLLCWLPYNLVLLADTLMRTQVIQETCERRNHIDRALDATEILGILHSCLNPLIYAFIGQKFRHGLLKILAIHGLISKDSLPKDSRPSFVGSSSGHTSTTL", "experiment": "Binding of radioiodinated GRO/MGSA to human neutrophils", "settings": "1 nM GRO", "method": "FIG. 10. Ac-RRWWCX (SEQ ID NO:23) Inhibits Binding of GRO and MIP2β to human neutrophils. Radioiodinated MIP2β and GRO/MGSA were mixed with various concentration of Ac-RRWWCR-NH2 and incubated at room temperature for 15 min. Neutrophil suspension (1×10^6 cells in 160 μl PBS containing 0.1% BSA) was added to 40 μl of the mixture and incubated for 90 min on ice. The radioactivity bound to the cells was separated from free radioactivity by centrifugation through an oil layer. The % binding inhibition was calculated as follows: [formula]\nMIP2β and GRO/MGSA were radioiodinated using Bolten Hunter reagent. The radioiodinated components were mixed with various concentration of the Ac-RRWWCX-NH2 (SEQ ID NO:23) peptide and incubated at room temperature for 15 min. Neutrophil suspension (1×10^6 cells in 160 μl PBS containing 0.1% BSA) was added to 40 μl of the mixture and incubated for 90 min on ice. The radioactivity bound to the cells was separated from free radioactivity by centrifugation through an oil layer. The bound radioactivity is an indication of bound CXC intercrine peptide. The % binding inhibition in the presence of Ac-RRWWCX-NH2 (SEQ ID NO:23) was calculated as follows: [formula]\nwhere B is bound radioactivity in the presence of the peptide, T is bound radioactivity in the absence of the peptide, and NSP is bound radioactivity in the presence of excess nonlabeled ligand."}, "[3]": {"tested_on": "IL-8-induced neutrophil chemotaxis", "experiment": "Neutrophil chemotaxis stimulated by IL-8 (leading front, Boyden chamber)", "format": "cell-based, human", "method": "FIG. 7. The Effect of Ac-RRWWCR-NH2 (SEQ ID NO:1) on Neutrophil Chemotaxis. Chemotaxis was performed in the presence of increasing concentration of Ac-RRWWCR-NH2 (SEQ ID NO:1) in both upper and lower chamber. Stimulants added to lower chamber were 10 nM IL-8 (●), 10 nM fMLP (▪), or media alone (◯) as control. Analysis of variance was used for multiple comparison.\nChemotaxis was performed using the leading front method as described by Zigmond and Hirsh (1973). IL-8 or controls were placed in the lower well of a Boyden chamber. A five micron pore size, 100 μm. thick cellulose nitrate filter (Sartorius Filter,. Inc., San Francisco, Calif.) was placed on the surface and the chamber was then assembled. A 200 μl aliquot of the neutrophil preparation (1×10^6 cells/ml) in RPMI-1640 media containing 1% BSA was added to the top of the filter and incubated at 37° C. for 30 min. The filter was then fixed, stained and mounted on a glass microscope slide. The leading front was determined by the position of the leading two cells. The distance that the leading two cells had moved through the filter was measured for six fields on each filter. The measurements were made with four filters for each set of conditions."}, "neutrophils [4]": {"tested_on": "neutrophils", "experiment": "β-glucuronidase release from neutrophils without stimulant", "format": "cell-based, human", "settings": "without any stimulant", "method": "FIG. 8. The Effect of Ac-RRWWCR-NH2 (SEQ ID NO:1) on β-glucuronidase Release. Neutrophils pretreated with cytochalasin B were incubated with 100 nM IL-8 (●), 100 nM fMLP (▪), 100 nM C5a (_) or 100 nM leukotriene B4 ? or without any stimulant (◯) in the presence of increasing concentration of Ac-RRWWCR-NH2 (SEQ ID NO:1) for 30 min at 37° C. β-glucuronidase activity of supernatants were measured using phenolphthalein-glucuronic acid as substrate. Analysis of variance was used for multiple comparison.\nNeutrophil enzyme release was studied by a modification of the method of Goldstein and colleagues (Goldstein et al., 1973). Cytochalasin B (Sigma Chemical Co.) was stored in dimethyl sulfoxide at a concentration of 5 mg/ml and was diluted to a concentration of 50 μg/ml in Hank's Balanced Salt Solution (HBSS) immediately before use. Cytochalasin B, 200 μl, was added to 1 ml of suspension of neutrophils, 6.25×10^6 cells/ml in HBSS, to achieve a final cytochalasin B concentration of […]. The solution was then incubated in 96 well plates at room temperature for 10 min. The stimulant, 100 μl, was added, and this cell suspension was incubated for 30 min at 37° C. The plates were centrifuged and 100 μl of supernatant was removed. […] After 16 hr incubation at 37° C., 200 μl of 0.2 M Glycine in 0.2 M NaCl, pH10.4 was added to each well and OD540 was measured as the enzyme activity."}, "[5]": {"tested_on": "adenocarcinoma from stomach AGS", "experiment": "Tumor cell growth, AGS", "format": "cell-based"}, "neutrophils [6]": {"tested_on": "neutrophils", "experimental": "Cytotoxicity Test. […] (●) or in RPMI-1640 media containing 1% BSA for 30 min at 37° C. (◯).\nThis was achieved by measuring the amount of ^51Cr released from neutrophils, as follows: The neutrophil preparation (2×10^7/ml) in RPMI-1640 media containing 10% donor's plasma was incubated with 500 μCi of Na2^51CrO4 (Du Pont Co.) for 60 min at 37° C. The cells were washed 3 times, resuspended in the media at the concentration of 1×10^7/ml, and then incubated for 30 min at 37° C. to allow spontaneous lysis of marginally viable cells. […] The buffer and the conditions of incubation simulated either the binding assay or the chemotactic assay. After the incubation, the tubes were centrifuged at 300×g for 7 min at 4° C. and the radioactivity in the supernatant was then counted in a gamma radiation spectrometer. Triplicate tubes containing buffer alone or 2% SDS were used to determine spontaneous and maximum release, respectively. The percentage lysis was calculated by using the following formula: [formula]"}, "[7]": {"settings": "Hs 294T culture, 100 μM peptide", "experimental": "Analysis for the breakdown of Antileukinate in the culture of Hs 294T cells. A total concentration of tritium labeled and unlabeled Antileukinate of 100 μM, was added to the culture of Hs 294T cells. Aliquots of medium were removed at different times and chromatographed on an HPLC Bondapak C18 reversed phase column. The peptides were eluted using a gradient from 0.1% TFA to 80% acetonitrile in 0.1% TFA. One milliliter fractions were collected and measured for their radioactivity using a liquid scintillation counter. The chromatographs show the elution volume of the radioactivity at different times after addition to the cells.\nHs 294T and Hep G2 cells, 2×10^4 cell/well, were cultured in 24 well tissue culture plates for 24 hr. Then the culture media were replaced with media containing tritiated Antileukinate, 0.2 μCi, mixed with 100 μM unlabeled peptide in each well. The cells were then cultured for the indicated periods. The supernatants were collected and stored at −70° C. until use. The breakdown of Antileukinate during the cell culture was analyzed on high performance liquid chromatography (HPLC) using an analytical C18 reversed phase column (Waters Co., New Bedford, Mass.). […] One milliliter fractions were collected and measured for their radioactivity content using a liquid scintillation counter."}, "Hs 294T": {"tested_on": "Hs 294T", "settings": "16 hr", "experimental": "The cell lines (4×10^5 cells/well) in RPMI-1640 medium containing 10% fetal bovine serum were incubated with 10 μCi of Na2^51CrO4 (DuPont NEN Co.) for 60 min at 37° C. in a 24 well tissue culture plate. The cells were washed 3 times and then incubated in cell culture medium for 30 min at 37° C. to allow spontaneous lysis of marginally viable cells. […] The cells were cultured for 16 hr at 37° C. and then the radioactivity in the supernatants was counted in a gamma radiation spectrometer. Quadriplicate wells received cell culture medium alone or 2% SDS to determine spontaneous and maximum release, respectively. The percentage lysis was calculated by using the following formula: [formula]"}, "[8]": {"settings": "100 μM peptide, 72 hr, trypan blue dye exclusion", "experimental": "The viability of Hs 294T cells after the culture for 72 hr in the presence of Antileukinate. Melanoma cell line Hs 294T was cultured in the presence of various concentrations of Antileukinate for 72 hr. The viability of the cells was measured by means of trypan blue dye exclusion."}},
  "note": "Where two headings read alike, the source gives them in different places.",
  "data": [
    {"substance": "RRWWCR [Ac-RRWWCR-NH2]", "values": [
      {"measurement": "effect on binding of C5a to neutrophils", "setting": "[1]", "value": "did not affect the binding"},
      {"measurement": "effect on binding of GRO to neutrophils", "setting": "[2]", "value": "effectively suppress the binding"},
      {"measurement": "peptide concentration significantly suppressing chemotaxis", "setting": "[3]; chemotaxis induced by 10 nM IL-8", "value": 50, "unit": "lM"},
      {"measurement": "peptide concentration significantly inhibiting chemotaxis", "setting": "[3]; neutrophils stimulated with 10 nM IL-8", "value": 50, "unit": "µM"},
      {"measurement": "stimulation of β-glucuronidase release by the peptide itself", "setting": "neutrophils [4]", "value": "did not stimulate β-glucuronidase release"},
      {"measurement": "effect on cell growth", "setting": "[5]", "value": "inhibits growth"},
      {"measurement": "cell lysis under conditions used in chemotaxis", "setting": "neutrophils [6]; 100 μM peptide, RPMI-1640 1% BSA, 30 min at 37° C.", "value": "had no effect"},
      {"measurement": "cells damaged under conditions used in chemotaxis", "setting": "neutrophils [6]; 500 μM peptide, RPMI-1640 1% BSA, 30 min at 37° C.", "value": "~25", "unit": "%"},
      {"measurement": "percentage of cells lysed", "setting": "neutrophils [6]; PBS containing 0.1% BSA, 90 min at 4° C., up to 500 μM peptide", "value": "remained near control level"},
      {"measurement": "time within which the peptide is substantially eliminated from the culture", "setting": "[7]", "value": "≤ 24", "unit": "h"},
      {"measurement": "decrease of the major radioactivity peak (intact peptide)", "setting": "[7]; after 24 hr", "value": "more than 85%"},
      {"measurement": "% cell lysis", "setting": "Hs 294T; 1 μM peptide", "value": "−4.0 ± 5.2", "unit": "%"},
      {"measurement": "% cell lysis", "setting": "Hs 294T; 5 μM peptide", "value": "−3.2 ± 7.2", "unit": "%"},
      {"measurement": "% cell lysis", "setting": "Hs 294T; 20 μM peptide", "value": "−1.6 ± 3.7", "unit": "%"},
      {"measurement": "% cell lysis", "setting": "Hs 294T; 100 μM peptide", "value": "2.4 ± 7.9", "unit": "%"},
      {"measurement": "viability of Hs 294T cells", "setting": "[8]", "value": "greater than 92%"}
    ]}
  ]
}
